Drawing on PubChem BioAssay (NCI), this text covers TGI for twelve molecules.

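Assay format: 96-well plates, 48-hour exposure. TGI denotes the concentration required for complete inhibition of growth.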

Common to all, as to assay: inhibition of tumour cell growth, NCI panel, 48 h
Assay [1] concerns K-562 leukemia.
Assay [2] deals with DU-145 prostate.
Assay [3] has as its system SW-620 colon.
For assay [4], the system named is MOLT-4 leukemia.
The test system of assay [5] is LOX IMVI melanoma.
Assay [6] deals with U251 CNS.
Assay [7] concerns A498 renal.
Assay [8] relates to SN12C renal.
Assay [9] relates to MDA-MB-231 breast.
Assay [10] concerns M14 melanoma.
Assay [11] concerns IGROV1 ovarian.

As for `CO[C@H]1O[C@@H]2CO[C@@H](c3ccccc3)O[C@H]2C[C@]12CCC/C=C\CO2`, the TGI was 35.7 µM in [1]; > 75 µM in assay [2]; 61.1 µM in assay [3]; 32 µM in assay [4]; 22.9 µM in assay [5]; 23.5 µM in [6]. The TGI in [7] was found to be 37.2 µM; in assay [8], 29.7 µM; in assay [9] it was 39.3 µM; in [10], 41.2 µM.
In the case of `O=C1c2ccccc2C(=O)N1c1ccc(OCCN2CCCCC2)cc1`, the TGI in [1], in assay [2], in [3], in assay [4], in assay [5] and in [6] was > 100 µM throughout. Besides, the TGI in [11], in [7], in assay [8], in [9] and in assay [10] was > 100 µM each time.
`CC(=O)OC[C@@]12C[C@H]3C(=O)C(C)(C)C[C@H]3[C@]1(C)[C@@H](OC(C)=O)[C@]1(O)[C@H]([C@@H](OC(=O)c3ccccc3)[C@@H](C)[C@H]1OC(C)=O)[C@H]2OC(C)=O`: the TGI in assay [1], in assay [2], in assay [3], in [4], in assay [5] and in assay [6] was > 20 µM each time. Moreover, the TGI in assay [11], in assay [7], in assay [8], in assay [9] and in assay [10] was > 20 µM throughout.
For the molecule `CCCCCCCSCC(O)COC(c1ccccc1)(c1ccccc1)c1ccccc1` (stereo unspecified), the TGI in assay [1], in assay [2], in assay [3], in [4], in assay [5] and in [6] was > 100 µM each time. Further, the TGI in assay [11], in [7], in [8], in assay [9] and in assay [10] was > 100 µM throughout.
Consider `N#Cc1c(NC(=S)NCc2ccccc2)sc2c1CCN(N1CCc3c(sc(NC(=S)NCc4ccccc4)c3C#N)C1)C2`, for which the TGI in [1], in assay [2], in assay [3], in assay [4], in assay [5] and in assay [6] was > 100 µM in each case. The TGI in assay [11], in assay [7], in assay [8], in assay [9] and in assay [10] was > 100 µM throughout.
With `C#CCOC(=O)c1ccccc1OC(C)=O`, the TGI in [1], in assay [2], in assay [3], in assay [4], in assay [5] and in assay [6] was > 100 µM each time. Moreover, the TGI in assay [11], in [7], in [8], in assay [9] and in assay [10] was > 100 µM each time.
On to `O=[N+]([O-])C1(C2([N+](=O)[O-])CCCC2)CCCC1`, for which the TGI in [1], in [2], in [3], in [4], in assay [5] and in assay [6] was > 100 µM each time. Further, the TGI in [11], in [7], in [8], in assay [9] and in assay [10] was > 100 µM each time.
`Cc1cc2c(-c3ccccc3)cc(=O)[nH]c2cc1N`: the TGI in assay [1], in assay [2], in [3], in assay [4], in [5] and in assay [6] was > 100 µM throughout. Besides, the TGI in [11], in assay [7], in [8], in assay [9] and in [10] was > 100 µM in each case.
On to `NC(CCCCNc1ccn(C2OC(CO)C(O)C2O)c(=O)n1)C(=O)O` (stereo unspecified), for which the TGI in assay [1], in assay [2], in assay [3], in assay [4], in [5] and in assay [6] was > 100 µM in each case. The TGI in assay [11], in assay [7], in [8], in assay [9] and in assay [10] was > 100 µM in each case.
Regarding `CN1C[C@@H]2CCCN2P1Oc1cccc2cccnc12` (stereo partly specified), the TGI in assay [1] was > 100 µM; in [2] it was > 100 µM; in assay [3], > 100 µM; in [4], 58.1 µM; in assay [5], > 100 µM; in assay [6], > 100 µM. In addition, the TGI in assay [11], in assay [7], in assay [8], in [9] and in [10] was > 100 µM throughout.
For `C[N+]1(C)CN(c2ccccc2)C2(CCN(CCCC(=O)c3cccs3)CC2)C1=O`, the TGI in assay [1], in assay [2], in assay [3], in [4], in assay [5] and in [6] was > 100 µM each time. Besides, the TGI is > 100 µM in assay [11]; > 100 µM in [7]; > 100 µM in assay [8]; > 100 µM in [9]; 51.9 µM in assay [10].
For the molecule `NC(=O)N(O)c1cccc(Br)c1`, the TGI in assay [1], in assay [2], in assay [3], in [4], in assay [5] and in assay [6] was > 100 µM in each case. The TGI in assay [11], in [7], in assay [8], in assay [9] and in [10] was > 100 µM each time.
